Legend:
[1] = biological target: T1, N-acetylneuraminic acid aldolase (Escherichia coli, UniProt P0A6L4); test: Kinetic study of the aldolase-catalysed ManNAc/F-pyr reaction (Equation 1, non-linear regression of initial-rate data)
[2] = biological target: T1, N-acetylneuraminic acid aldolase; conditions: value given in the literature; read-out: Km value for the standard ManNAc/Pyr reaction; cited from earlier work
[3] = test system: O=C(O)C(=O)CF; test: purified protein, by the assay type; conditions: other: ManNAc/F-pyr reaction, 24 U*/ml aldolase, pH 7.5, 25° C.

O=C(O)C(=O)CF [F-Pyr, 1-fluoro-2-oxopropanoic acid]
Ki [1]: 49 mM
maximal activity of the reaction ([1]; enzyme charge of >24 U*/mg): 0.9 U/mg

CC(=O)C(=O)O [Pyr, pyruvic acid]
Km [2]: 8.5 mM

N-acetylneuraminic acid aldolase (Escherichia coli K-12)
Km [3]: 41 mM
